# Like-named read-outs stand apart in the source and are kept apart here. Non-standard residues stand in square brackets, D forms with d. Residues, ends and D or L forms follow the SMILES beside them. d1Nal = N[C@H](Cc1cccc2ccccc12)C(=O)O; Aoc = NCCCCCCCC(=O)O
# Assays:
# [1] = tested on: mouse red blood cells (RBCs); assay: Hemolysis assay; assay type: cell-based; conditions: mouse RBC, up to 250 μg/mL, 1 h, 37 °C, PBS pH 7.4; 0.1% Triton X-100 = 100%; data not shown
# Protocol: For the experiment, a previously defined procedure was used with slight modifications[67],[68]. Briefly, blood was withdrawn from mice on the day of the experiment. After washing red blood cells (RBC) twice with phosphate buffer saline (PBS: 35 mM sodium phosphate, 150 mM NaCl, pH 7.4), a 4% v/v suspension of RBC was prepared in the same buffer. In a 96-well plate, serial two-fold dilutions of desired concentrations of peptidomimetics (in PBS) were prepared (100 μL) in duplicate. To each well 100 μL of 4% v/v RBC suspension was added. The plates were incubated at 37 °C for 1 h. After 1 h, the plates were centrifuged at 1500 rpm for 10 min and 20 μL of the supernatant was transferred to a fresh 96-well plate containing 80 μL PBS. The hemoglobin release was quantified by measuring OD414 in an ELISA plate reader (Molecular Devices, Sunnyvale, CA, USA). Hemoglobin release from 0.1% Triton X-100 treated RBC was set as 100% lysis (Amax) while as negative control RBC suspended in PBS alone was used (APBS). Percentage hemolysis was calculated using the following equation:1 %hemolysis=[(Asample−APBS)/(Amax−APBS)]×100
# MRSA ATCC 33591 [2] = assay: Resistance development over 17 serial passages at sub-MIC; assay type: cell-based, Staphylococcus aureus; conditions: for MIC: Staphylococcus aureus
# Protocol: For the experiment, a method as described previously was used with slight modifications. Briefly, for the experiment, on day 1 the initial MICs of all test agents were determined using routine MIC experiment protocol as described earlier. Next day, bacterial cells (100 μL) from the wells with concentrations 2–4 fold less than the MIC value for each test agent were used to set up fresh mid-log phase cultures in MHB medium for setting up the MIC plate. This was repeated for a total of 17 sub-lethal treatments with each antimicrobial agent. For every passage, corresponding glycerol stocks (15% v/v) were made for each culture and were kept at −80 °C for future use.
# [3] = tested on: Methicillin-resistant S. epidermidis (ATCC 35984); assay: microbe, parasite or virus in culture; assay type: cell-based, Staphylococcus epidermidis; conditions: MRSE ATCC 35984; MHB, 2–5 × 10^5 CFU/mL, 16–18 h, 37 °C, OD600
# Protocol: (§1) The antibacterial activity was evaluated as MIC using slight modifications to a serial broth micro dilution method as reported previously[66],[67]. Briefly, to each treatment well of the 96-well plate (Corning Incorporated, USA) 10 μL of peptidomimetic/antibiotic was added and subsequently diluted serial 2-fold in 0.2% BSA (in 0.01% acetic acid). Then to each well of the first 11 columns 100 μL of mid-log phase bacterial suspension in MHB medium was added to get 2–5 × 10^5 CFU/mL. Cultures without test peptidomimetics/antibiotics were used as growth control. Uninoculated MHB medium was used as negative control. The microtitre plates were incubated overnight with agitation (180 rpm) at 37 °C. After 16–18 h incubation, absorbance was read at 600 nm using an ELISA plate reader (Molecular Devices, Sunnyvale, CA, USA). The experiments were carried out in duplicate on at least three different days.
# S. aureus (ISP479R) = assay type: cell-based, Staphylococcus aureus; conditions: MHB, 2–5 × 10^5 CFU/mL, 16–18 h, 37 °C, OD600
# Protocol: as §1
# MRSA (ATCC 43300) = assay: microbe, parasite or virus in culture; assay type: cell-based, Staphylococcus aureus; conditions: MHB, 2–5 × 10^5 CFU/mL, 16–18 h, 37 °C, OD600
# Protocol: as §1
# S. aureus (ISP479C) = assay: microbe, parasite or virus in culture; assay type: cell-based, Staphylococcus aureus; conditions: MHB, 2–5 × 10^5 CFU/mL, 16–18 h, 37 °C, OD600
# Protocol: as §1
# [4] = tested on: Escherichia coli (ATCC 11775); assay type: cell-based
# Protocol: as §1
# MRSA ATCC 33591 [5] = assay: microbe, parasite or virus in culture; assay type: cell-based, Staphylococcus aureus
# Protocol: An initial inoculum of mid-log phase 10^7 CFU/mL was used and MIC experiment was performed as described earlier. For serum/plasma stability assay a method as described previously was used with slight modifications. Briefly, 50 μL MHB medium containing desired concentration of test peptidomimetics was incubated with 50 µL mice plasma/fetal bovine serum for 3 h at 37 °C. After incubation, a 10 μL aliquot was taken out for MIC determination as described above. For the experiment, mid-log phase 2–5 × 10^5 CFU/mL were used as initial inoculum. For the growth control wells, an equivalent amount of plasma/FBS in the medium was also added to evaluate their effect on the viability of cells. A slight decrease in OD600 of cells incubated with mice plasma was observed compared to untreated growth control in MHB alone. The experiments were repeated on two different days and reproducible MIC values were observed.
# [6] = tested on: E. faecium (E-7846), clinical isolate of vancomycin-resistant E. faecium; assay: organism not typed; assay type: cell-based, Enterococcus faecium; conditions: VRE clinical isolate E-7846; MHB, 2–5 × 10^5 CFU/mL, 16–18 h, 37 °C
# Protocol: as §1
# [7] = tested on: E. faecium (E-447), clinical isolate of vancomycin-resistant E. faecium; assay: organism not typed; assay type: cell-based, Enterococcus faecium; conditions: VRE clinical isolate E-447; MHB, 2–5 × 10^5 CFU/mL, 16–18 h, 37 °C
# Protocol: as §1
# [8] = tested on: 3T3 murine fibroblast cell line; assay: Cytotoxicity, MTT assay; assay type: cell-based; conditions: 3T3 fibroblasts, 2 h, DMEM with 10% FBS, mean ± S.D., triplicate on two days
# Protocol: For the active peptidomimetics cytotoxicity was measured against 3T3 murine fibroblast cell line using a previously defined MTT assay with slight modifications. Briefly, the cells were grown to over 75% confluence in DMEM supplemented with 10% FBS and antibiotics (1 × Anti-anti) at 37 °C in 5% CO2 atmosphere. The cells were transferred to a 24-well plate to a final count of ~8 × 10^4 cells/well. […] The plates were kept for 2 h at 37 °C in 5% CO2 incubator. After 2 h, the cells were washed once with 1 mL PBS. Then 1 mL MTT (0.1 mg/mL) was added to each well in dark and incubated for 2 h at 37 °C in 5% CO2. After 2 h, 200 μL of DMSO was added to the wells to dissolve the formazan crystals formed and the plates were kept for 5 min in the incubator at 37 °C. 100 μL of the suspension was transferred to a fresh 96-well plate and absorbance (Asample) was measured at 570 nm in an ELISA plate reader (Molecular Devices, Sunnyvale, CA, USA). The wells with DMSO treatment were set as untreated control (Auntreated control). The assay was done in triplicate on two different days. The % survival was calculated using the following equation:2 %survival=[Asample/Auntreatedcontrol]×100
# MRSA (ATCC 33591) = assay: microbe, parasite or virus in culture; assay type: cell-based, Staphylococcus aureus; conditions: MHB, 2–5 × 10^5 CFU/mL, 16–18 h, 37 °C, OD600
# Protocol: as §1
# S. aureus (ATCC 29213) = assay: microbe, parasite or virus in culture; assay type: cell-based, Staphylococcus aureus; conditions: MHB, 2–5 × 10^5 CFU/mL, 16–18 h, 37 °C, OD600, duplicate, at least three days
# Protocol: as §1
# [9] = MRSA ATCC 33591, initial inoculum 10^7 CFU/mL, mid-log phase
SMILES,% hemolysis [1],MIC (MRSA ATCC 33591 [2]; read-out: final MIC),MIC (MRSA ATCC 33591 [2]; read-out: initial MIC),fold increase in MIC (MRSA ATCC 33591 [2]; at 6th passage),fold increase in MIC (MRSA ATCC 33591 [2]; over 17 passages (final MIC / initial MIC)),"Minimum inhibitory concentration, MIC [3]","Minimum inhibitory concentration, MIC (S. aureus (ISP479R))","Minimum inhibitory concentration, MIC (MRSA (ATCC 43300))","Minimum inhibitory concentration, MIC (S. aureus (ISP479C))",MIC [4],"Minimum inhibitory concentration, MIC (MRSA ATCC 33591 [5]; ATCC 33591, 3 h)","Minimum inhibitory concentration, MIC (MRSA ATCC 33591 [5]; MRSA ATCC 33591, after 3 h pre-incubation at 37 °C with mice plasma (50%, v/v), inoculum 2–5 × 10^5 CFU/mL, repeated on two days)","Minimum inhibitory concentration, MIC (MRSA ATCC 33591 [5]; [9])","Minimum inhibitory concentration, MIC [6]","Minimum inhibitory concentration, MIC [7]",% viable cells relative to untreated control (MTT) ([8]; 10× MIC),% viable cells relative to untreated control (MTT) ([8]; 20 × MIC),"Minimum inhibitory concentration, MIC (MRSA (ATCC 33591))","Minimum inhibitory concentration, MIC (S. aureus (ATCC 29213))"
"N=C(N)NCCC[C@H](NC(=O)CCCCCCCNC(=O)[C@H](CCCNC(=N)N)NC(=O)[C@@H](N)Cc1c[nH]c2ccccc12)C(=O)N[C@@H](Cc1c[nH]c2ccccc12)C(N)=O [S-5, Trp-Arg-(8-AOA)-Arg-Trp-CONH2] (HELM PEPTIDE1{W.R.[O=C(CCCCCCCN[*:1])[*:2]].R.W.[am]}$$$$V2.0)",< 5%,,,,,,,,,,,,,,,,,,
"O=C(O)c1cn(C2CC2)c2cc(N3CCNCC3)c(F)cc2c1=O [CIP, Ciprofloxacin]",,11.3 µg/mL,0.17 µg/mL,~16 fold,66.8 fold,,,,,,,,,,,,,,
"N=C(N)NCCC[C@H](NC(=O)[C@@H](Cc1cccc2ccccc12)NC(=O)CCCCCCCNC(=O)[C@@H](Cc1cccc2ccccc12)NC(=O)[C@@H](N)CCCNC(=N)N)C(N)=O [S-9, Arg-(D-1-Nal)-(8-AOA)-(D-1-Nal)-Arg-CONH2] (H-R[d1Nal][Aoc][d1Nal]R-NH2)",< 5%,,,,,45.4 µg/mL,45.4 µg/mL,>45.4 µg/mL,45.4 µg/mL,,,,,,,,,,
"N=C(N)NCCC[C@H](NC(=O)[C@H](Cc1c[nH]c2ccccc12)NC(=O)CCCCCCCCCCCNC(=O)[C@H](Cc1c[nH]c2ccccc12)NC(=O)[C@@H](N)CCCNC(=N)N)C(N)=O [S-7, Arg-Trp-(12-ADO)-Trp-Arg-CONH2] (HELM PEPTIDE1{R.W.[O=C(CCCCCCCCCCCN[*:1])[*:2]].W.R.[am]}$$$$V2.0)",,,,,,11.3 µg/mL,11.3 µg/mL,11.3 µg/mL,11.3 µg/mL,> 45.4 µg/mL,22.7 µg/mL,>45.4 µg/mL,11.3 µg/mL,5.6 µg/mL,11.3 µg/mL,no decrease in cell viability,no decrease in cell viability,11.3 µg/mL,11.3 µg/mL
"N=C(N)NCCC[C@H](NC(=O)CCCCCCCCCCCNC(=O)[C@H](CCCNC(=N)N)NC(=O)[C@@H](N)Cc1c[nH]c2ccccc12)C(=O)N[C@@H](Cc1c[nH]c2ccccc12)C(N)=O [S-6, Trp-Arg-(12-ADO)-Arg-Trp-CONH2] (HELM PEPTIDE1{W.R.[O=C(CCCCCCCCCCCN[*:1])[*:2]].R.W.[am]}$$$$V2.0)",,,,,,11.3 µg/mL,11.3 µg/mL,11.3 µg/mL,11.3 µg/mL,> 45.4 µg/mL,22.7 µg/mL,,11.3 µg/mL,11.3 µg/mL,11.3 µg/mL,no decrease in cell viability,no decrease in cell viability,11.3 µg/mL,11.3 µg/mL

# Source: paper PMC5773577, “Novel Miniature Membrane Active Lipopeptidomimetics against Planktonic and Biofilm Embedded Methicillin-Resistant Staphylococcus aureus” (Scientific Reports, 2018)
